The results in this text go back to patent publication US11524956B2, “Alkyne substituted quinazoline compound and methods of use” (Newgen Therapeutics, Inc., priority 2011, dated 2022).

Series [1] can be described thus: Rat brain concentration. The note with it: Sprague Dawley, po, P.O. 5 mg/Kg; for concentration at 2 h / concentration at 4 h / concentration at 24 h: brain, 5 mg/kg. The format is in vivo, Sprague Dawley rats. The method, then: Brain concentration: Three rats are for brain collection (2h) only. Three rats are for brain collection (4 h) only. The rest 3 rats are for plasma (9 time points) and brain collection (24h).
Brain Collection and Tissue Processing: Post blood collection, the brain was first perfused intracardially with ˜150 mL of ice-cold, 0.1 M Phosphate Buffered Saline (PBS) at pH7.4. Then, the dura was removed before weighing the brain. The brain was then dissected into smaller pieces, rinsed twice with ˜10 mL PBS, and then flash frozen on dry ice, and stored at −80° C. before analysis.
Before tissue processing, rat brains were thawed. For the preparation of analytical standards, purchased frozen rat brains (from Pelfreez) were similarly thawed, dissected, rinsed with PBS, and 100 μL of Compound A stock solution (at 500 ng/mL and 1, 2 5, 10, and 50 μg/mL in acetonitrile) was spiked directly into the tissue. Both Compound A dosed and spiked brains then underwent the same processing procedures described below.
Briefly, 2 mL of water was added to each brain before homogenization. Homogenize the brain in 2 to 3 sessions, each approximately 15 sec. The mechanical probe of the homogenizer was cleansed in water, 70% ethanol, and ethyl acetate after each sample. The resulting brain homogenates were then extracted with ethyl acetate three times (14 mL total), and centrifuged to separate the aqueous and organic phases after each extraction. Per brain, pooled organic phase were evaporated under a stream of nitrogen at 40° C. and the residues were reconstituted with 4 mL of mobile phase B. Compound A spiked brain samples in the 4 mL solutions had final concentrations of 12.5, 25, 50, 125, 250, 1250 ng/mL. The reconstituted samples were incubated for ˜15 minutes at 60° C. and, vortexed for 10 minutes to fully dissolve the analytes. The samples were centrifuged, and then further diluted with Mobile phase B (shown below) before LC/MS/MS analysis. Dilute 20 μL of reconstituted samples with 1.5 mL mobile phase B. Transfer and inject supernatant to […] system for analysis.

Series [2] relates to NCI-N87 xenograft. Nature of the series: In vivo efficacy in NCI-N87 xenograft mouse model. The note with it: for RTV T/C / tumor growth inhibition: day-7 after treatment. The method, then:
NCI-N87 cell line was purchased from ATCC (American Type Culture Collection) and was cultured in RPMI1640+10% FBS+1% P/S antibiotics.
Male Balb/c nude mice, 6-8 week, 18±2 g (supplier: Shanghai SLAC Laboratory Animal Co. Ltd.) were used for the experiment. The purchased mice were adapted to the environment for 7 days before use, and were housed at 22-25° C. with humidity 40-70%, and light cycle with fluorescent light for 12-hour light (8:00-20:00) 12-hour dark. The mice have free access to food and water.
The cancer cells (NCI-N87) were implanted subcutaneous into the nude mice (right flank) with 5.0×10^6 cells in 0.1 ml PBS (50 mice). When the tumor size reaches a volume of 200 (150-200) mm^3, the tumor-bearing nude mice were randomly assigned into groups (10 mice/group), one group was served as vehicle, one group was administrated with Lapatinib ditosylate monohydrate (80 mg/kg, free base of Lapatinib, not salt, p.o. […]). The other two groups were administrated with NT113 (also referred to as KID 113) ((15 and 30 mg/kg, p.o.q.d, respectively). The administration period lasted for 4 weeks.
The mice were monitored twice daily for appearance and behavior, and for signs of morbidity and/or mortality. The tumor volume was measured twice a week, and the body weight was measured immediately before measuring the tumor volume throughout the whole study.
At end of the experiment (compound administration for four weeks), all the tumor-bearing mice were sacrificed by cervical dislocation under deep anesthesia. The tumor mass was resected, and weighed.
Tumor sizes were measured twice weekly in two dimensions using a caliper, and the volume was expressed in mm^3 using the formula: V=½×a×b^2 where a and b are the long and short diameters of the tumor, respectively. The tumor mass was weighed at the end of the experiment after harvested.
V=½×a×b^2 (a, h is maximum and minimum diameters respectively).
RTV (Relative Tumor Volume)=Vt/Vo • Vo is the tumor volume when the test article is initial administrated • Vt is the tumor volume of every measurement day after test article administration
T/C (%)=TRTV/CRTV×100% • TRTV: RTV of test article-treatment group; CRTV: RTV of control group Inhibition rate (%)=(average tumor volume of control group average cancer volume of test article treatment group)/average tumor volume of control group×100%
The tumor-bearing mice were treated for 4 weeks with different doses of KU (15 mg/kg, 30 mg/kg, […]), qd) and Lapatinib KUA-1, 80 mg/kg, p.o., bid, 7 days/week. At the day-7 after treatment, the RTV TIC KU113 (15 mg/kg, 30 mg/kg) groups were <30%, and the tumor growth inhibition was >70%. but the RTV TIC was 31% and tumor growth inhibition rat was 69% in the lapatinib group. The same result was observed as well when it comes to the tumor weight. On day 28 after treatment, all the tumor-bearing mice were sacrificed, and all the tumor masses were harvested to weigh.

Series [3] deals with NCI-H1975 cells. Nature of the series: Anti-proliferation assay of NCI-H1975 cells (CCK-8). The format is cell-based. Conditions: Homo sapiens, NCI-H1975, 72 h, 3 days. The procedure: The anti-proliferative assays were performed in triplicates. 3000 cell/well of N1975 cells were seeded in 96-well plate (medium: RPMI 1640, 5% FBS. 2 mM L-Glutamine). After 24 h, removal the medium in the plate was followed by the addition of compound of serial dilution in medium to the wells. After 3 days, the cells were treated with CCK-8 kit and incubated for additional 4 hours at 37° C. The plate was read at 450 nm. The log of the fractional growth inhibition was plotted against the log of the drug concentration, and the IC50 values were interpolated from the resulting linear regression curve fit. The IC50 value measured for Compound NT113 is <1000 nM.

Each structure is given as a SMILES string. Read-outs that look alike come from different tables or passages of the source.

Regarding `CN(C)C/C=C/C(=O)Nc1cc2c(Nc3ccc(F)c(Cl)c3)ncnc2cc1C#C[C@@H]1[C@H]2COC[C@@H]12` [Example 4, (E)-N-(4-(3-chloro-4-fluorophenylamino)-7-(2-((1R,5S,6s)-3-oxa-bicyclo[3.1.0]hexan-6-yl)ethynyl)quinazolin-6-yl)-4-(dimethylamino)but-2-enamide], the concentration at 2 h in series [1] (2 hr, read-out: Brain Conc. (ng/g) Mean) amounted to 156 ng/g; in series [1] (2 hr, read-out: Brain Conc. (ng/g) No. 1), 118 ng/g; in series [1] (2 hr, read-out: Brain Conc. (ng/g) No. 2), 156 ng/g; in series [1] (2 hr, read-out: Brain Conc. (ng/g) No. 3), 194 ng/g. For the same compound, the concentration at 4 h in series [1] (4 hr, read-out: Brain Conc. (ng/g) Mean) stood at 173 ng/g; in series [1] (4 hr, read-out: Brain Conc. (ng/g) No. 1) it was 127 ng/g; in series [1] (4 hr, read-out: Brain Conc. (ng/g) No. 2) it was 209 ng/g; in series [1] (4 hr, read-out: Brain Conc. (ng/g) No. 3), 185 ng/g. The concentration at 24 h is 17.6 ng/g in series [1] (24 hr, read-out: Brain Conc. (ng/g) Mean); 26 ng/g in series [1] (24 hr, read-out: Brain Conc. (ng/g) No. 1); 11 ng/g in series [1] (24 hr, read-out: Brain Conc. (ng/g) No. 2); 15.8 ng/g in series [1] (24 hr, read-out: Brain Conc. (ng/g) No. 3). For the same compound, the Kp at 2 h in series [1] (brain/plasma, 2 hr, read-out: B/P ratio) turned out to be 4. Also, the Kp at 4 h in series [1] (brain/plasma, 4 hr, read-out: B/P ratio) came to 4.4. Besides, the Kp at 24 h in series [1] (brain/plasma, 24 hr, read-out: B/P ratio) was determined as 8.7. For the same compound, the “tolerability (side effect)” value in series [2] (15 mg/kg, po, qd) is on record as “without predefined side effect”. In addition, the “body weight after dosing was stopped” value in series [2] (30 mg/kg group, by day 28) is given as “recovered to normal”. Besides, in series [2] (30 mg/kg, p.o., qd, 7 days/week), the body weight effect entry was “body weight loss”. The “RTV T/C” value in series [2] (15 mg/kg po qd) and in series [2] (30 mg/kg po qd) was less than 30% in each case. For the same compound, the tumor growth inhibition in series [2] (15 mg/kg po qd) and in series [2] (30 mg/kg po qd) was more than 70% each time. Moreover, the IC50 is 100 to 1000 nM in series [3] (read-out: Cell Proliferation Inhibition IC50 (nM) NCI-H1975) and less than 1000 nM in series [3] (read-out: IC50 NCI-H1975 anti-proliferation).
